Measured values published in patent US11077126B2 (priority 2017, dated 2021).

Columns and labels:
[1] = system: transplanted tumor of human renal cell adenocarcinoma 769-P cells; assay: Human renal cell adenocarcinoma in nude mice model; settings: 769-P nude mice; 30 mg/kg i.g. 30 d
Procedure: (§1) Then cell concentration was adjusted to 1×10^7/ml with matrigel, and then each nude mouse was inoculated subcutaneously with 0.2 ml of cells at its right armpit and recorded as the first day of inoculation. […] Each group was continuously administered intragastrically for 30 days with a dose of 20 ml/kg. The mice were sacrificed the next day after drug withdrawal and the indicators were tested. The long diameter and short diameter of tumor, and the body weight of each mouse were recorded every 3 days from drug administration to nude mouse sacrifice.
(§2) The body weight of the nude mice and the long diameter (a) and short diameter (b) of the transplanted tumor were measured every 3 days, and the tumor volume (v), relative tumor volume (RTV) and relative tumor proliferation rate (T/C) are calculated respectively according to the following formulas, wherein V=a×b^2/2; RTV=V/V0 (V0 is the tumor volume before administration, V is the tumor volume before sacrifice), and T/C (%)=treatment group RTV/model control group RTV×100%.
(§3) Each mouse was weighed and sacrificed. After the tumor was completely stripped off from the body of the mouse, the non-tumor tissues such as blood stains and fat were removed to weigh the tumor and calculate the tumor growth inhibition rate. The average tumor weight of each group of mice is used as an indicator of efficacy. Tumor growth inhibition rate (%)=(1−the average tumor weight of the treatment group/the average tumor weight of the model group)×100%.

[2] = system: mouse bone marrow polychromatic erythrocytes; settings: NIH mice, cyclophosphamide 60 mg/kg positive control
Procedure: It is the object to test the mutagenic potential of drugs on mammalian somatic cells, and provide a basis for clinical drug use.
An appropriate amount of 0.5% sodium carboxymethyl cellulose solution was added to prepare a suspension, and the suspension was stored in a refrigerator at 4° C. The negative control was an equal amount of 0.5% sodium carboxymethylcellulose solution. The positive control was prepared as follows: an appropriate amount of cyclophosphamide used for injection was weighed, and was dissolved in normal saline at the time of use to prepare 60 mg/kg of solution.
6 mice per group. The doses, number of administrations, and bone marrow sampling time are selected in the pre-test.
The dose is reduced by ½ LD50 as the standard, and the number of administrations is one time. According to the pre-test results, the bone marrow sampling time is to sample 24 hours after administration.
At least three dose groups, respectively: 2,000 mg/kg, 1,000 mg/kg, 500 mg/kg
The number of administrations: one-time oral administration.
Oral (Intragastric) administration.
2.4.3 Bone marrow sampling time: 24 hours after administration.
The mice were sacrificed by cervical dislocation. Then the sternums were taken to remove the muscles thereon and the attachments were wiped with a gauze. Direct smear of bone marrow was used: the sternums were cut to expose the medullary cavity, and bone marrow was extruded and mixed well with a drop of calf serum on a slide beforehand as a push piece. After being dried, the slide was fixed in methanol for 10 minutes, and then after it was dried, it was then subjected to Giemsa staining. Each mouse was microscopically examined for about 1,000 polychromatic erythrocytes with intact contours of erythrocytes, and the frequency of occurrence of micronuclei and the ratio of polychromatic erythrocytes to erythrocytes were counted.

[3] = system: transplanted tumor of human large cell lung cancer H1299 cells; assay: Human large cell lung cancer (H1299) in nude mice model; settings: 30 mg/kg i.g. 30 d
Procedure: as §1, with “with matrigel, then each” for “with matrigel, and then each”, “diameter of the tumor, and” for “diameter of tumor, and”
as §2, §3

[4] = system: transplanted tumor of human breast cancer MDA-MB-231 cells; assay: Human breast cancer (MDA-MB-231) in nude mice model; settings: MDA-MB-231 nude mice; 30 mg/kg i.g. 30 d
Procedure: as §1, with “diameter of the tumor, and” for “diameter of tumor, and”
as §2, §3

## O=P1(N(CCCl)CCCl)NCCCO1 (centres unmarked) [Cyclophosphamide]
[1]
  Body Weight (g)(d1): 22.48 ± 0.91 g
  Body Weight (g)(d30): 21.28 ± 0.39 g
  Inhibition Rate (%): 76.09%
  Relative Tumor Proliferation Rate(T/C): 19.68%
  Relative Tumor Volume (RTV): 4.19 ± 1.29
  Tumor Volume (mm3) (d1): 178.48 ± 28.78 mm3
  Tumor Volume (mm3) (d30): 747.83 ± 138.57 mm3
  Tumor Weight: 0.61 ± 0.15 g
[2]
  micronucleus rate relative to the negative control group: 16.85 times
[2]; P<0.01
  micronuclei of polychromatic erythrocytes compared with the negative control group: very significant increase
[3]
  Body Weight (g)(d1): 20.92 ± 0.59 g
  Body Weight (g)(d30): 18.82 ± 0.52 g
  Inhibition Rate (%): 68.59%
  Relative Tumor Proliferation Rate(T/C): 31.47%
  Relative Tumor Volume (RTV): 6.13 ± 0.82
  Tumor Volume (mm3) (d1): 115.38 ± 13.82 mm3
  Tumor Volume (mm3) (d30): 707.28 ± 26.96 mm3
  Tumor Weight: 0.56 ± 0.11 g
[4]
  Body Weight (g)(d1): 21.28 ± 0.95 g
  Body Weight (g)(d30): 19.79 ± 1.03 g
  Inhibition Rate (%): 79.75%
  Relative Tumor Proliferation Rate(T/C): 28.59%
  Relative Tumor Volume (RTV): 3.46 ± 0.70
  Tumor Volume (mm3) (d1): 169.73 ± 11.79 mm3
  Tumor Volume (mm3) (d30): 587.27 ± 30.47 mm3
  Tumor Weight: 0.27 ± 0.11 g
